Columns and labels:
[1] = reported in JP 9-100291 A; cited from earlier work
[2] = Average particle size by particle size distribution analyzer; format: physicochemical; details: D-form crystal
Text: The content of residual solvent may be determined in a known manner, for example, by gas chromatography. The details on gas chromatography can be found in the Japanese Pharmacopoeia, 13th Edition, published by Hirokawa Publishing Co. (1996) pp. B83-B94, the Japanese Pharmacopoeia, 14th Edition, published by Hirokawa Publishing Co. (2001) pp. B98-B114 and elsewhere. In general, gas chromatography will cause a measurement error falling within around ±1%. The compound of the present invention can also be determined for its average particle size in a known manner or using various devices that are commercially available, such as a dry particle size distribution analyzer. In general, such a particle size distribution analyzer will cause a measurement error falling within around ±5%.
In these examples and comparison examples, X-ray diffractometry was performed using a powder X-ray diffractometer RINT-1100 (Rigaku), the content of residual solvent was determined using a gas chromatograph GC-17A (Shimadzu Corp.), and the average particle size was determined using a particle size distribution analyzer RPS-95 (Seishin Enterprise Co., Ltd.).

| SMILES | Particle size (average particle size) [2] [μm] | Stability compared with the A-type and C-type crystals [1] |
| --- | --- | --- |
| CC[C@H]1OC(=O)[C@H](C)[C@@H](O[C@H]2C[C@@](C)(OC)[C@@H](O)[C@H](C)O2)[C@H](C)[C@@H](O[C@@H]2O[C@H](C)C[C@H](N(C)C(C)C)[C@H]2O)[C@]2(C)CC(C)=C(O2)[C@H](C)C(=O)[C@]1(C)OC [D-type crystal] |  | superior in stability |
| CC[C@H]1OC(=O)[C@H](C)[C@@H](O[C@H]2C[C@@](C)(OC)[C@@H](O)[C@H](C)O2)[C@H](C)[C@@H](O[C@@H]2O[C@H](C)C[C@H](N(C)C(C)C)[C@H]2O)[C@]2(C)CC(C)=C(O2)[C@H](C)C(=O)[C@]1(C)OC [Example 8] | 185 |  |
| CC[C@H]1OC(=O)[C@H](C)[C@@H](O[C@H]2C[C@@](C)(OC)[C@@H](O)[C@H](C)O2)[C@H](C)[C@@H](O[C@@H]2O[C@H](C)C[C@H](N(C)C(C)C)[C@H]2O)[C@]2(C)CC(C)=C(O2)[C@H](C)C(=O)[C@]1(C)OC [Example 3] | 197 |  |
| CC[C@H]1OC(=O)[C@H](C)[C@@H](O[C@H]2C[C@@](C)(OC)[C@@H](O)[C@H](C)O2)[C@H](C)[C@@H](O[C@@H]2O[C@H](C)C[C@H](N(C)C(C)C)[C@H]2O)[C@]2(C)CC(C)=C(O2)[C@H](C)C(=O)[C@]1(C)OC [Example 2] | 302 |  |

The next lines start with results.

| Particle size (average particle size) [2] [μm] | SMILES | Stability compared with the A-type and C-type crystals [1] |
| --- | --- | --- |
| 61 | CC[C@H]1OC(=O)[C@H](C)[C@@H](O[C@H]2C[C@@](C)(OC)[C@@H](O)[C@H](C)O2)[C@H](C)[C@@H](O[C@@H]2O[C@H](C)C[C@H](N(C)C(C)C)[C@H]2O)[C@]2(C)CC(C)=C(O2)[C@H](C)C(=O)[C@]1(C)OC [Comparison Example 2, reference compound] |  |
| 82 | CC[C@H]1OC(=O)[C@H](C)[C@@H](O[C@H]2C[C@@](C)(OC)[C@@H](O)[C@H](C)O2)[C@H](C)[C@@H](O[C@@H]2O[C@H](C)C[C@H](N(C)C(C)C)[C@H]2O)[C@]2(C)CC(C)=C(O2)[C@H](C)C(=O)[C@]1(C)OC [Comparison Example 1, reference compound] |  |
| 163 | CC[C@H]1OC(=O)[C@H](C)[C@@H](O[C@H]2C[C@@](C)(OC)[C@@H](O)[C@H](C)O2)[C@H](C)[C@@H](O[C@@H]2O[C@H](C)C[C@H](N(C)C(C)C)[C@H]2O)[C@]2(C)CC(C)=C(O2)[C@H](C)C(=O)[C@]1(C)OC [Example 7] |  |

From patent US7645864B2, “Erythromycin derivative having novel crystal structures and processes for their production” (Chugai Seiyaku Kabushiki Kaisha, priority 2001, dated 2010)
